Target: Alpha-glucosidase MAL12 (Saccharomyces cerevisiae (strain ATCC 204508 / S288c), UniProt P53341)
Assay: Alpha-glucosidase Assay
Method: Typically, α-glucosidase activity was assayed in 50 mM phosphate buffer (pH 6.8) containing 5% v/v DMSO and PNP glycoside was used as a substrate. The inhibitors were pre-incubated with enzyme at 37 °C for 0.5 h. The substrate was then added and the enzymatic reaction was carried out at 37 °C for 60 min. The reaction was monitored spectrophotometrically by measuring the absorbance at 400 nm.

Chain of Alpha-glucosidase MAL12 (P53341 whole entry): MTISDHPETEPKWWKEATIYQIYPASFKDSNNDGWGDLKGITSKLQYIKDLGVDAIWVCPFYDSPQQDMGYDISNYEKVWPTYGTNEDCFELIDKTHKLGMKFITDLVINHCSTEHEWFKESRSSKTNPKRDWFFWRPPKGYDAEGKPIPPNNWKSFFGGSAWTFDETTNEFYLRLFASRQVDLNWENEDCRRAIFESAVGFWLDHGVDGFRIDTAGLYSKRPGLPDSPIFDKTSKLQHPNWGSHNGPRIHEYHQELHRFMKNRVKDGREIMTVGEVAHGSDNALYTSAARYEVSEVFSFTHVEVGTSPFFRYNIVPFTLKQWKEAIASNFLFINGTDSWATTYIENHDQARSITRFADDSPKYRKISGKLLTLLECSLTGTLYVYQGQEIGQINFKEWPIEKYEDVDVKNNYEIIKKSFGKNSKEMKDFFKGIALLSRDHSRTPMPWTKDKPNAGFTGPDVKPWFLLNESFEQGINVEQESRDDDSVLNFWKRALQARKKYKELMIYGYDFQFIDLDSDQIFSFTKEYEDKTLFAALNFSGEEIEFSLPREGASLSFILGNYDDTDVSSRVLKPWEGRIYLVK

IC50 [µM]	SMILES
51.6	COc1ccccc1C(=O)CSc1nnc2c(n1)[nH]c1ccccc12 [2-(5H-[1,2,4]triazino[5,6-b]indol-3-ylthio)-1-(2-methoxyphenyl)-ethanone (9)]
37.1	O=C(CSc1nnc2c(n1)[nH]c1ccccc12)c1cccc(Br)c1 [2-(5H-[1,2,4]triazino[5,6-b]indol-3-ylthio)-1-(3-bromophenyl)-ethanone (11)]
38.1	O=C(CSc1nnc2c(n1)[nH]c1ccccc12)c1cccc(F)c1 [2-(5H-[1,2,4]triazino[5,6-b]indol-3-ylthio)-1-(3-flourophenyl)-ethanone (5)]
2.46	O=C(CSc1nnc2c(n1)[nH]c1ccccc12)c1cccc(O)c1 [2-(5H-[1,2,4]triazino[5,6-b]indol-3-ylthio)-1-(3-hydroxyphenyl)-ethanone (1)]
313	COc1cccc(C(=O)CSc2nnc3c(n2)[nH]c2ccccc23)c1 [2-(5H-[1,2,4]triazino[5,6-b]indol-3-ylthio)-1-(3-methoxyphenyl)-ethanone (10)]
37.8	O=C(CSc1nnc2c(n1)[nH]c1ccccc12)c1ccc(Br)cc1 [2-(5H-[1,2,4]triazino[5,6-b]indol-3-ylthio)-1-(4-bromophenyl)-ethanone (3)]
28.9	COc1ccc(C(=O)CSc2nnc3c(n2)[nH]c2ccccc23)cc1 [2-(5H-[1,2,4]triazino[5,6-b]indol-3-ylthio)-1-(4-methoxyphenyl)-ethanone (4)]
78.4	O=C(CSc1nnc2c(n1)[nH]c1ccccc12)c1ccc(-c2ccccc2)cc1 [2-(5H-[1,2,4]triazino[5,6-b]indol-3-ylthio)-1-(biphenyl-4-yl)-ethanone (2)]
36.9	CC(Sc1nnc2c(n1)[nH]c1ccccc12)C(=O)c1ccccc1 (stereo not given) [2-(5H-[1,2,4]triazino[5,6-b]indol-3-ylthio)-1-phenylpropane-1-one (8)]
37.4	O=C(CSc1nnc2c(n1)[nH]c1ccccc12)c1cc2ccccc2oc1=O [3-(2-(5H-[1,2,4]triazino[5,6-b]indol-3-ylthio)acetyl)-2H-chromen-2-one (7)]

— BindingDB's records for doi:10.1016/j.bioorg.2014.12.001 (Hazara University, 2015)
